Measurements as given in ChEMBL document CHEMBL4651402, “Screening of ~5500 FDA-approved drugs and clinical candidates for anti-SARS-CoV-2 activity” (2021).

Test system: SARS-CoV-2
Assay: microbe, parasite or virus in culture
Conditions: Severe acute respiratory syndrome coronavirus 2, Vero C1008, 48 h

Compound | IC50 | IC50 (read-out: pIC50 (converted))
O=C(Oc1cccc2cccnc12)c1ccccc1 [BENZOXIQUINE] | > 20 µM | > 20 µM
COc1ccccc1OCC(O)CN1CCN(CC(=O)Nc2c(C)cccc2C)CC1 (stereo unspecified) [RANOLAZINE] | > 20 µM | > 20 µM
Nc1ncnc2c1ncn2[C@@H]1O[C@H](COP(=O)(O)OP(=O)(O)OP(=O)(O)O)[C@@H](O)[C@H]1O [ADENOSINE TRIPHOSPHATE] | > 20 µM | > 20 µM
CC/C=C/C/C=C/C/C=C/C/C=C/C/C=C/CCCC(=O)O | > 20 µM | > 20 µM
Nc1cccc2c1CN(C1CCC(=O)NC1=O)C2=O (stereo unspecified) [LENALIDOMIDE] | > 20 µM | > 20 µM
CNCC(O)c1ccc(O)c(OC)c1 (stereo unspecified) [METANEPHRINE] | > 20 µM | > 20 µM
CC(=O)Oc1ccc(C(c2ccc(OC(C)=O)cc2)c2ccccn2)cc1 [BISACODYL] | > 20 µM | > 20 µM
Cc1cccc(C)c1NC(=O)CN1CCCC1 [PYRROCAINE] | > 20 µM | > 20 µM
CN1C2CCC1CC(OC(c1ccccc1)c1ccccc1N)C2 (stereo unspecified) | > 20 µM | > 20 µM
O=C(NO)c1cc(Br)ccc1O [BROMOCYL] | > 20 µM | > 20 µM
CC12CCC3C(CCC4=CC(=O)C=CC43C)C1CCC(=O)O2 (stereo unspecified) | > 20 µM | > 20 µM
Cc1cccc(C)c1CNc1cc(C(=O)NCCO)cn2c(C)c(C)nc12 [LINAPRAZAN] | > 20 µM | > 20 µM
Nc1nc(=O)[nH]cc1F [FLUCYTOSINE] | > 20 µM | > 20 µM
CC1(C(=O)O)CCC2(C)CCC3(C)C(=CC(=O)C4C5(C)CCC(O)C(C)(C)C5CCC43C)C2C1 (stereo unspecified) | > 20 µM | > 20 µM
Cc1sc2ccccc2c1CC1=NCCN1 [METIZOLINE] | > 20 µM | > 20 µM
O=C1c2ccccc2CN2C(=O)c3ccccc3CN12 [DIFTALONE] | > 20 µM | > 20 µM
CCOc1cc(CC(=O)N[C@@H](CC(C)C)c2ccccc2N2CCCCC2)ccc1C(=O)O [REPAGLINIDE] | > 20 µM | > 20 µM
O=C(c1ccc2nonc2c1)N1CCCCC1 [FARAMPATOR] | > 20 µM | > 20 µM
CC1C2Cc3ccc(O)cc3C1(C)CCN2CC1CC1 (stereo unspecified) | > 20 µM | > 20 µM
COc1ccc(F)cc1[C@H](C)NC(=O)Cc1ccc(S(=O)(=O)Nc2ncc(CC(C)C)cn2)cc1 [GLIFLUMIDE] | > 20 µM | > 20 µM
NC(=O)O[C@@H](Cn1ncnn1)c1ccccc1Cl [CENOBAMATE] | > 20 µM | > 20 µM

Compound | IC50 | IC50 (read-out: pIC50 (converted))
CCC1(C2=NCCN2)Cc2ccccc2O1 (stereo unspecified) [EFAROXAN] | > 20 µM | > 20 µM
Cc1cc2c(s1)Nc1ccccc1N=C2N1CCN(C)CC1 [OLANZAPINE] | > 20 µM | > 20 µM
CCCN(CCC)c1cc(C)nc2c(-c3cnc(N(C)C)cc3C)c(C)nn12 | > 20 µM | > 20 µM
Cc1ccc(C(C)C)c(O)c1 [THYMOL] | > 20 µM | > 20 µM
CN1C(=O)N(c2cc(Cl)cc(Cl)c2)C(=O)[C@@]1(C)Cc1ccc(Br)cc1 | > 20 µM | > 20 µM
CCCC1O[C@@H]2C[C@H]3[C@@H]4CCC5=CC(=O)C=C[C@]5(C)[C@H]4[C@@H](O)C[C@]3(C)[C@]2(C(=O)CO)O1 (stereo partly specified) [BUDESONIDE] | > 20 µM | > 20 µM
CCOC(=O)OC(C)OC1=C(C(=O)Nc2ccccn2)N(C)S(=O)(=O)c2ccccc21 (stereo unspecified) [AMPIROXICAM] | > 20 µM | > 20 µM
C=C(C)[C@@H]1CC[C@]2(C(=O)O)CC[C@]3(C)[C@H](CCC4[C@@]5(C)CC[C@@H](O)C(C)(C)C5CC[C@]43C)C12 (stereo partly specified) | > 20 µM | > 20 µM
CC#C[C@]1(O)CC[C@H]2[C@@H]3CCC4=CC(=O)CCC4=C3[C@@H](c3ccc(N(C)C)cc3)C[C@@]21C [MIFEPRISTONE] | > 25.1 µM | > 25.1 µM
CC(NC(C)(C)C)C(=O)c1cccc(Cl)c1 (stereo unspecified) [BUPROPION] | > 20 µM | > 20 µM
Cc1csc(Cl)c1NC1=NCCN1 [TIAMENIDINE] | > 20 µM | > 20 µM
CN(C)Cc1ccc(CSCCNC2=NS(=O)(=O)c3cscc32)o1 | > 20 µM | > 20 µM
CCC1(c2c[nH]cn2)Cc2ccccc2C1 [ATIPAMEZOLE] | > 20 µM | > 20 µM
COc1ccc(-c2cc(=O)c3c(O)cc(O)cc3o2)cc1 [ACACETIN] | > 20 µM | > 20 µM
Nc1ccc(C(=O)O)cc1 [AMINOBENZOIC ACID] | > 20 µM | > 20 µM
Cc1c(OCC(F)(F)F)ccnc1C[S+]([O-])c1nc2ccccc2[nH]1 (stereo unspecified) [LANSOPRAZOLE] | > 20 µM | > 20 µM
CC1(Cn2ccnn2)[C@H](C(=O)O)N2C(=O)C[C@H]2S1(=O)=O (stereo partly specified) | > 20 µM | > 20 µM
O=C(O)C(O)C(O)C(O)C(O)C(O)CO (stereo unspecified) | > 20 µM | > 20 µM
CCC(=O)Nc1c(C)cc(C(=O)N2CCC(N(C)CCc3ccccc3)CC2)cc1C | > 20 µM | > 20 µM
C[C@]12CC[C@H]3C(=CCc4cc(O)ccc43)[C@@H]1CCC2=O [EQUILIN] | > 20 µM | > 20 µM
CCCCCCCCCCCCCCCC(=O)OCC(NC(=O)C(Cl)Cl)C(O)c1ccc([N+](=O)[O-])cc1 (stereo unspecified) | > 20 µM | > 20 µM

Compound | IC50 | IC50 (read-out: pIC50 (converted))
CCN(CC)CC1CCCCN1CC(=O)N1c2ccccc2C(=O)Nc2cccnc21 (stereo unspecified) [OTENZEPAD] | > 20 µM | > 20 µM
Cc1cc(CCCCCCCOc2ccc(C3=NCCO3)cc2)on1 [DISOXARIL] | > 20 µM | > 20 µM
O/N=C1/CCCC/C1=N\O | > 20 µM | > 20 µM
CCCCNC(=O)NS(=O)(=O)c1ccc(N)cc1 [CARBUTAMIDE] | > 20 µM | > 20 µM
CS(=O)(=O)c1ccc(-c2cn3ccccc3n2)cc1 [ZOLIMIDINE] | > 20 µM | > 20 µM
C[C@H]1O[C@@H](O[C@H]2[C@@H](O)C[C@H](O[C@H]3[C@@H](O)C[C@H](O[C@H]4CC[C@@]5(C)[C@H](CC[C@@H]6[C@@H]5CC[C@]5(C)[C@@H](C7=CC(=O)OC7)[C@@H](O)C[C@]65O)C4)O[C@@H]3C)O[C@@H]2C)C[C@H](O)[C@@H]1O [GITOXIN] | > 20 µM | > 20 µM
CC1(C)CN(C(=O)c2ccc(-c3cccc4nc(NC(=O)C5CC5)nn34)cc2)C1 [SOLCITINIB] | > 20 µM | > 20 µM
CCOC(=O)C1(c2ccccc2)CCN(CCC(C#N)(c2ccccc2)c2ccccc2)CC1 [DIPHENOXYLATE] | > 20 µM | > 20 µM
CC(=O)OC1(C(C)=O)CCC2C3CC(C)C4=CCCCC4(C)C3CCC21C (stereo unspecified) | > 20 µM | > 20 µM
CC(=O)Nc1c(I)c(NC(C)=O)c(I)c(C(=O)O)c1I [DIATRIZOIC ACID] | > 20 µM | > 20 µM
CC[C@H](C)C(=O)O[C@H]1CCC=C2C=C[C@H](C)[C@H](CC[C@@H]3C[C@@H](O)CC(=O)O3)[C@H]21 [MEVASTATIN] | > 20 µM | > 20 µM
C=C1C(=O)O[C@@H]2[C@H]3C(C)=CC[C@@]34O[C@@]4(C)CC[C@@H]12 [ARGLABIN] | > 20 µM | > 20 µM
CC(C)CC(N)=O [ISOVALERAMIDE] | > 20 µM | > 20 µM
CC[C@]1(O)C[C@H]2CN(CCc3c([nH]c4ccccc34)[C@@](C(=O)OC)(c3cc4c(cc3OC)N(C=O)[C@H]3[C@@](O)(C(=O)OC)[C@H](OC(C)=O)[C@]5(CC)C=CCN6CC[C@]43[C@@H]65)C2)C1 [VINCRISTINE] | > 20 µM | > 20 µM
OC(CCCN1CCCCC1)(c1ccccc1)c1ccccc1 [DIPHENIDOL] | > 20 µM | > 20 µM
C1CCC2(C1)C1CN(CC3CC3)CC2CN(CC2CC2)C1 | > 20 µM | > 20 µM
Cc1cc(O)cc(C)c1Cl [CHLOROXYLENOL] | > 20 µM | > 20 µM
O=C(CCCN1CCC(O)(c2ccc(Cl)cc2)CC1)c1ccc(F)cc1 [HALOPERIDOL] | > 20 µM | > 20 µM
CC(C)(C)NCC(O)c1cc(Cl)c(N)c(Cl)c1 (stereo unspecified) [CLENBUTEROL] | > 20 µM | > 20 µM
C[C@]12CCC(=O)C=C1CC[C@@H]1[C@@H]2CC[C@@]2(C)[C@H]1CC[C@]2(C)O [METHYLTESTOSTERONE] | > 20 µM | > 20 µM
O=C1CCC(c2ccccc2)(C2CCN(Cc3ccccc3)CC2)C(=O)N1 (stereo unspecified) [BENZETIMIDE] | > 20 µM | > 20 µM
